# In PMC12040169 (PLOS Biology, 2025):
# Assay: in vitro
# Conditions: human, hela cells, % viability
row,Compound,"viability at 28.5 h, 10 µM [%]"
1,O=C(COc1ccc(Br)cc1C(=O)O)Nc1ccc(F)cc1 [CBK286671],92
2,O=C(O)CC1(O)C(=O)N(Cc2ccccc2)c2ccccc21 (centres unmarked) [CBK286673],104
3,Cc1c(CC(=O)O)c(=O)oc2cc(OCc3ccc(F)cc3)ccc12 [CBK286674],103
4,COc1ccc2[nH]cc(C(C(=O)O)N3CCCCC3)c2c1 (centres unmarked) [CBK286676],85.3
5,CCOc1ccc(Cc2nnnn2CC(=O)O)cc1 [CBK286677],91.2
6,Cc1ccc(C)c(NC(=O)N[C@@H](CC(C)C)C(=O)O)c1 [CBK286678],89
7,O=C(O)CCC(=O)NCC1(c2ccccc2)CCCC1 [CBK286679],89.7
8,CC(=O)N1CCN(C(C(=O)O)c2c[nH]c3cc(NC(=O)c4ccccc4)ccc23)CC1 (centres unmarked) [CBK286680],84.9
9,CN(C)S(=O)(=O)N1CCC(C(=O)O)(c2ccccc2)CC1 [CBK286681],90.3
10,O=C(O)C1CCN(C(=O)CCN2C(=O)[C@@H]3Cc4ccccc4CN3C2=O)CC1 [CBK286682],88.2
11,O=C(O)c1ccccc1SC1CCc2ccccc2NC1=O (centres unmarked) [CBK286683],83.1
12,O=C(O)c1ccc(S(=O)(=O)N(CC2CC=CCC2)CC2CCCO2)cc1 (centres unmarked) [CBK286685],101
13,O=C(O)C(c1c[nH]c2ccc(OCc3ccccc3)cc12)N1CCCC1 (centres unmarked) [CBK286686],97.6
14,COc1ccc2c(ccn2CC(=O)NC[C@H]2CC[C@H](C(=O)O)CC2)c1 [CBK286687],110
15,CCOC(=O)N1CCN(C(C(=O)O)c2c[nH]c3cc(OCc4ccccc4)ccc23)CC1 (centres unmarked) [CBK286689],97
16,O=C(CNC(=O)c1ccccc1C(=O)O)Nc1ccccc1 [CBK286690],94.1
17,COc1ccccc1N1CCN(c2ccc([N+](=O)[O-])cc2C(=O)O)CC1 [CBK286692],96.3
18,CCOc1ccc2c(c1)C(=O)c1cc(OCC(=O)O)ccc1-2 [CBK286693],94.3
19,CCNC(=O)CN1CCN(C(C(=O)O)c2c[nH]c3ccc(C)cc23)CC1 (centres unmarked) [CBK286694],98
20,CN1CCN(C(C(=O)O)c2cn(CCC(=O)O)c3ccc(Br)cc23)CC1 (centres unmarked) [CBK286698],103
21,COc1ccc(C(CNC(=O)C2C(C(=O)O)C2(C)C)N(C)C)cc1 (centres unmarked) [CBK286700],110

row,Compound,"viability at 28.5 h, 10 µM [%]"
1,COc1cccc(N2CCN(C(C(=O)O)c3cn(C)c4cc(C(=O)O)ccc34)CC2)c1 (centres unmarked) [CBK286701],114
2,O=C(O)C[C@H](CNC(=O)COc1ccc2ccc(=O)oc2c1)c1ccc(Cl)cc1 [CBK286702],113
3,COc1ccc(-c2nc3c(c(SCC(=O)O)n2)COC(C)(C)C3)cc1 [CBK286704],107
4,O=C(O)C(Cc1c[nH]cn1)N1C(=O)C2C3C=CC(C3)C2C1=O (centres unmarked) [CBK286705],88
5,Cc1ccc(S(=O)(=O)NC[C@H]2CC[C@H](C(=O)O)CC2)cc1 [CBK286706],96.1
6,O=C(O)CCCCCNc1ccc(C(F)(F)F)cc1[N+](=O)[O-] [CBK286707],83.3
7,O=C(N[C@@H](Cc1ccccc1)C(=O)O)c1cccc2c1-c1ccccc1C2=O [CBK286710],92.1
8,CCn1cc(C(=O)N2CCC(C(=O)O)CC2)c(=O)c2cc3c(cc21)OCO3 [CBK286713],111
9,O=C(O)CNC(=O)[C@H]1CC[C@H](Cn2cnc3ccccc3c2=O)CC1 [CBK286714],97
10,O=C(O)C[C@]1(C(=O)NC2CCCCCC2)CC(c2ccc(Cl)cc2)=NO1 [CBK286716],92.3
11,CCN1CCN(C(=O)c2nccnc2C(=O)O)CC1 [CBK286718],88.8
12,CC(C)(C)OC(=O)N[C@@H](Cc1ccccc1)C(=O)NC[C@H]1CC[C@H](C(=O)O)CC1 [CBK286719],81.9
13,CC(C)CCNC(=O)CC(=O)Nc1ccc(C(=O)O)cc1 [CBK286721],85.5
14,CC(C)[C@H](NC(=O)C1CC(=O)N(c2ccc(F)cc2)C1)C(=O)N1CCCC1C(=O)O (some centres unmarked) [CBK286723],95
15,O=C(O)c1ccc(CSc2nnnn2-c2ccccc2)cc1 [CBK286726],85.1
16,COc1ccc2c(C)c(CCC(=O)N(C)CC(=O)O)c(=O)oc2c1 [CBK286731],87
17,C[C@H](NC(=O)C1CC(=O)N(c2ccc(F)cc2)C1)C(=O)N1CCC(C(=O)O)CC1 (some centres unmarked) [CBK286733],79.7
18,Cc1nn(-c2ccc(C(=O)O)cc2)c2c1C(=O)CC(C)(C)C2 [CBK286734],86.4
19,O=C(O)[C@@H]1CC(O)CN1C(=O)c1ccc2noc(-c3ccccc3)c2c1 (some centres unmarked) [CBK286736],86.1
20,CC1(C(=O)O)COC(c2ccc([N+](=O)[O-])cc2)OC1 (centres unmarked) [CBK286737],87.1
21,Cc1ccc(N2CCCn3c2nc2c3c(=O)n(CC(=O)O)c(=O)n2C)cc1 [CBK286740],90.5

row,Compound,"viability at 28.5 h, 10 µM [%]"
1,C[C@H](NC(=O)OC(C)(C)C)C(=O)NC[C@H]1CC[C@H](C(=O)O)CC1 [CBK286741],98.7
2,O=C(O)c1cccc(OCc2nnnn2-c2ccc(Br)cc2)c1 [CBK286744],82.7
3,O=C(O)C1CCC(CNC(=O)C2Cc3ccccc3CN2)CC1 (centres unmarked) [CBK286745],84.6
4,O=C(CCN1C(=O)[C@@H]2Cc3ccccc3CN2C1=O)N[C@H](C(=O)O)c1ccccc1 [CBK286751],88.7
5,O=C(O)CCCC(=O)N1N=C(c2ccccc2)CC1c1ccc2nccnc2c1 (centres unmarked) [CBK286752],89.4
6,O=C(O)C1CCCN(C(=O)COc2cc3oc(=O)cc(-c4ccccc4)c3cc2Cl)C1 (centres unmarked) [CBK286753],90.9
7,CC(=O)NC(CSc1cc(C)nc2ccccc12)C(=O)O (centres unmarked) [CBK286755],87.4
8,O=C(Cc1ccccc1C(=O)O)Nc1ccc(-n2cncn2)c(Cl)c1 [CBK286756],85.7
9,CCCC(CCC(=O)Nc1ccccc1Cl)C(=O)O (centres unmarked) [CBK286757],120
10,CC(=O)N1CCC2(CC1)NC(=O)N(c1ccc(C(=O)O)cc1)N2 [CBK286758],103
11,CC(C)C[C@@H](C(=O)N1CCC(C(=O)O)CC1)n1c(=O)[nH]c2ccccc2c1=O [CBK286762],88.5
12,CC(=O)C1=C(O)C(=O)N(CCC(=O)O)C1c1ccccc1 (centres unmarked) [CBK286763],84.3
13,COc1ccccc1N1CCN(CC(CC(=O)Nc2ccccc2)C(=O)O)CC1 (centres unmarked) [CBK286766],88.6
14,O=C(Cc1c[nH]c2ccccc12)NC(Cc1ccccc1)C(=O)O (centres unmarked) [CBK286770],120
15,COc1cc2oc(=O)c(CC(=O)N[C@@H](CC(C)C)C(=O)O)c(C)c2cc1Cl [CBK286772],104
16,O=C(O)CCCCC/N=C1\CCc2ccccc2N1 [CBK286773],100
17,O=C(O)Cc1sc(Nc2ccccc2)nc1-c1ccccc1 [CBK286775],97.2
18,Cc1ccc(C(=O)O)cc1NC(=O)C(=O)NCC(c1ccccc1)N(C)C (centres unmarked) [CBK286777],96.3
19,CCOc1ccc(C(C)(CC(N)=O)C(=O)O)cc1 (centres unmarked) [CBK286778],97.9
20,CC(=O)Cc1c(C(=O)O)c(C)nn1-c1ccccc1 [CBK286779],104
